Data: ChEMBL document CHEMBL4334527, “Proline-Based Allosteric Inhibitors of Zika and Dengue Virus NS2B/NS3 Proteases” (J Med Chem, 2019)
pIC50, pKd: −log10 of the molar value. Activity calls are given as the source filed them. No cut-off for these calls is given here.

How the values were obtained:
[1] = system: dengue virus type 2; test: Inhibition of N-terminal hexa-histidine tagged Dengue virus 2 NS2B/NS3 protease I30A/L31A mutant expressed in Escherichia coli BL21-Gold (DE3) at 20 uM using fluorogenic AMC-substituted peptide boc-GRR-7-amino-4-methylcoumarin measured every 30 secs for 10 mins by fluorometric assay relative to control
[2] = target: T1, Nonstructural protein 3 (Zika virus, UniProt A0A024AXB9); test: (§1) Inhibition of N-terminal hexa-histidine tagged Zika virus NS2B/NS3 protease expressed in Escherichia coli BL21-Gold (DE3) using fluorogenic AMC-substituted peptide boc-GRR-7-amino-4-methylcoumarin measured every 30 secs for 10 mins by fluorometric assay
T1 sequence (A0A024AXB9 whole entry): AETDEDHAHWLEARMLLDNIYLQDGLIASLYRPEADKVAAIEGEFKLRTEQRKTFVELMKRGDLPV

[3] = target: Nonstructural protein 3 (Zika virus) (UniProt A0A024AXB9); test: Inhibition of N-terminal hexa-histidine tagged Zika virus NS2B/NS3 protease expressed in Escherichia coli BL21-Gold (DE3) at 20 uM using fluorogenic AMC-substituted peptide boc-GRR-7-amino-4-methylcoumarin measured every 30 secs for 10 mins by fluorometric assay relative to control
Chain of Nonstructural protein 3 (Zika virus) (A0A024AXB9 as listed by the source): as the sequence (A0A024AXB9 whole entry) above

[4] = system: Zika virus; test: Antiviral activity against Zika virus infected in African green monkey Vero cells assessed as suppression of viral replication at 3 uM pre-incubated with cells for 1 hr before viral infection and measured after 4 days by RT-qPCR analysis; assay type: functional, organism-based
[5] = Drug level in rat liver microsomes treated with (R)-N-(5,6-Dimethoxybenzo[d]thiazol-2-yl)-1-tosylpyrrolidine-2-carboxamide assessed as compound formation in presence of NADPH generating system by LC-MS/MS analysis; assay type: ADME, Microsome
[6] = system: A549; test: Cytotoxicity against human A549 cells assessed as reduction in cell viability up to 5 uM by Presto blue cell viability reagent based assay
[7] = target: T1, Nonstructural protein 3; test: Binding affinity to N-terminal hexa-histidine tagged Zika virus NS2B/NS3 protease expressed in Escherichia coli BL21-Gold (DE3) by microscale thermophoresis method
[8] = system: Zika virus; test: Antiviral activity against Zika virus French Polynesia infected in human A549 cells assessed as reduction in viral RNA at 5 uM measured after 24 to 72 hrs post infection by RT-qPCR analysis; assay type: functional, organism-based
[9] = Drug level in rat liver microsomes treated with (S)-N-(5,6-Dimethoxybenzo[d]thiazol-2-yl)-1-tosylpyrrolidine-2-carboxamide assessed as compound formation in presence of NADPH generating system by LC-MS/MS analysis; assay type: ADME, Microsome
[10] = system: Zika virus; test: Antiviral activity against Zika virus Uganda infected in human A549 cells assessed as reduction in viral RNA at 5 uM measured after 24 to 72 hrs post infection by RT-qPCR analysis; assay type: functional, organism-based
[11] = Inhibition of N-terminal hexa-histidine tagged Dengue virus 2 NS2B/NS3 protease I30A/L31A mutant expressed in Escherichia coli BL21-Gold (DE3) using fluorogenic AMC-substituted peptide boc-GRR-7-amino-4-methylcoumarin measured every 30 secs for 10 mins by fluorometric assay; design: species or system dengue virus type 2
[12] = system: dengue virus type 2; test: Antiviral activity against Dengue virus 2 infected in African green monkey Vero cells assessed as suppression of viral replication at 10 uM pre-incubated with cells for 1 hr before viral infection and measured after 4 days by RT-qPCR analysis; assay type: functional, organism-based
[13] = system: Zika virus; test: Antiviral activity against Zika virus infected in African green monkey Vero cells assessed as suppression of viral replication at 10 uM pre-incubated with cells for 1 hr before viral infection and measured after 4 days by RT-qPCR analysis; assay type: functional, organism-based
[14] = system: Zika virus; test: Antiviral activity against Zika virus Uganda infected in African green monkey Vero cells assessed as reduction in plaque forming units at 5 uM measured after 96 hrs by crystal violet staining based assay; assay type: functional, organism-based
[15] = system: Zika virus; test: Antiviral activity against Zika virus infected in human A549 cells assessed as induction of redistribution of the ZIKV Env protein from ER to cytoplasm at 0.5 uM by confocal scanning microscopy; assay type: functional, organism-based
[16] = system: Zika virus; test: Antiviral activity against Zika virus French Polynesia infected in African green monkey Vero cells assessed as reduction in plaque forming units at 5 uM measured after 96 hrs by crystal violet staining based assay; assay type: functional, organism-based
[17] = system: dengue virus type 2; test: Antiviral activity against Dengue virus 2 infected in African green monkey Vero cells assessed as suppression of viral replication at 3 uM pre-incubated with cells for 1 hr before viral infection and measured after 4 days by RT-qPCR analysis; assay type: functional, organism-based
[18] = Drug metabolism in rat liver microsomes assessed as formation of (R)-N-(5,6-Dihydroxybenzo[d]thiazol-2-yl)-1-tosylpyrrolidine-2-carboxamide in presence of NADPH generating system by LC-MS/MS analysis; assay type: ADME, Microsome
[19] = Drug metabolism in rat liver microsomes assessed as formation of (S)-1-Benzoyl-N-(5,6-dihydroxybenzo[d]thiazol-2-yl)pyrrolidine-2-carboxamide in presence of NADPH generating system by LC-MS/MS analysis; assay type: ADME, Microsome
[20] = Drug metabolism in rat liver microsomes assessed as formation of (R)-N-(5,6-Dimethoxybenzo[d]thiazol-2-yl)-1-((4-(hydroxymethyl) phenyl) sulfonyl)pyrrolidine-2-carboxamide in presence of NADPH generating system by LC-MS/MS analysis; assay type: ADME, Microsome
[21] = Drug metabolism in rat liver microsomes assessed as formation of (S)-N-(5,6-Dimethoxybenzo[d]thiazol-2-yl)-1-((4-(hydroxymethyl) phenyl) sulfonyl)pyrrolidine-2-carboxamide in presence of NADPH generating system by LC-MS/MS analysis; assay type: ADME, Microsome
[22] = target: T1, Nonstructural protein 3; test: as §1, with “Non-competitive inhibition” for “Inhibition”, “using 50 to 200 uM” for “using”, “assay based Dixon plot analysis” for “assay”

COc1ccc(S(=O)(=O)N2CCC[C@@H]2C(=O)Nc2nc3cc(O)c(O)cc3s2)cc1
inhibition [1]: 28% | pIC50 [2]: 6.07

CC(=O)Nc1ccc2cc(S(=O)(=O)N3CCC[C@H]3C(=O)Nc3nc4cc(O)c(O)cc4s3)ccc2c1
inhibition [1]: 29% | pIC50 [2]: 5.53

COc1cc2nc(NC(=O)C3CCCN3S(=O)(=O)c3ccc([N+](=O)[O-])cc3)sc2cc1OC (configuration not stated)
inhibition [1]: inactive | inhibition [3]: inactive

Cc1ccc(S(=O)(=O)N2CCC[C@@H]2C(=O)Nc2nc3cc(O)c(O)cc3s2)cc1
Activity [4]: inactive | Drug uptake [5]: Active | Activity [6]: Non-Toxic | pKd [7]: 6.31 | Activity [8]: inactive | Drug uptake [9]: Active | Activity [10]: inactive | pIC50 [2]: 5.88 | pIC50 [11]: 4.71

O=C(Nc1nc2cc(O)c(O)cc2s1)[C@@H]1CCCN1S(=O)(=O)c1ccc([N+](=O)[O-])cc1
Activity [12]: Active | Activity [13]: inactive | pIC50 [2]: 6.03 | pIC50 [11]: 5.07

Cc1ccc(S(=O)(=O)N2CCCC[C@H]2C(=O)Nc2nc3cc(O)c(O)cc3s2)cc1
pIC50 [2]: 6.29 | pIC50 [11]: 4.89

O=C(Nc1nc2ccc([N+](=O)[O-])cc2s1)[C@H]1CCCN1C(=O)c1ccccc1
pIC50 [2]: 4.66 | pIC50 [11]: 4.47

Cc1ccc(S(=O)(=O)N2CCCC(C(=O)Nc3nc4cc(O)c(O)cc4s3)C2)cc1 (racemic)
inhibition [1]: 34% | pIC50 [2]: 5.34

Cc1ccc(S(=O)(=O)N2CCCC[C@@H]2C(=O)Nc2nc3cc(O)c(O)cc3s2)cc1
pIC50 [2]: 6.24 | pIC50 [11]: 4.54

COc1cc2nc(NC(=O)[C@H]3CCCN3S(=O)(=O)c3ccc(CO)cc3)sc2cc1OC
Drug uptake [5]: Active | Drug uptake [9]: Active

COc1ccc2cc(Oc3ccccc3C(=O)Nc3nc4cc(OC)c(OC)cc4s3)ccc2c1
Activity [14]: Active | inhibition [1]: inactive | inhibition [3]: inactive | Activity [15]: Active | Activity [16]: Active | Activity [6]: Non-Toxic | Activity [8]: Active | Activity [10]: Active | Activity [13]: inactive

O=C(Nc1nc2cc(O)c(O)cc2s1)[C@@H]1CCCN1S(=O)(=O)c1ccccc1
inhibition [1]: 27% | pIC50 [2]: 5.84

O=C(Nc1nc2cc(O)c(O)cc2s1)[C@H]1CCCN1S(=O)(=O)c1ccc([N+](=O)[O-])cc1
Activity [17]: Active | Activity [4]: inactive | pIC50 [2]: 6.49 | pIC50 [11]: 5.00

COc1ccc(S(=O)(=O)N2CCC[C@@H]2C(=O)Nc2nc3cc(OC)c(OC)cc3s2)cc1
inhibition [1]: inactive | inhibition [3]: inactive

Cc1ccc(S(=O)(=O)NCC(=O)Nc2nc3cc(O)c(O)cc3s2)cc1
pIC50 [2]: 6.09 | pIC50 [11]: 4.64

COc1cc2nc(NC(=O)C3CCCN3S(=O)(=O)c3ccc(Cl)cc3)sc2cc1OC (configuration not stated)
inhibition [1]: inactive | inhibition [3]: inactive

O=C(Nc1nc2cc(O)c(O)cc2s1)[C@H]1CCCN1S(=O)(=O)c1ccc(F)cc1
inhibition [1]: 17% | pIC50 [2]: 5.99

COc1cc2nc(NC(=O)[C@@H]3CCCN3S(=O)(=O)c3ccc(C)cc3)sc2cc1OC
Drug metabolism [18]: Metabolite_Detected | Activity [12]: Active | Drug metabolism [19]: Metabolite_Detected | Drug metabolism [20]: Metabolite_Detected | Activity [6]: Non-Toxic | Activity [8]: inactive | Activity [10]: inactive | Activity [13]: inactive | Drug metabolism [21]: Metabolite_Detected

Cc1ccc(S(=O)(=O)N2CCC[C@@H]2C(=O)Nc2nc3ccc([N+](=O)[O-])cc3s2)cc1
inhibition [1]: 18% | inhibition [3]: 31%

O=C(Nc1nc2cc(O)c(O)cc2s1)[C@H]1CCCN1S(=O)(=O)c1ccc(-c2ccccc2)cc1
pIC50 [2]: 5.61 | pIC50 [11]: 4.96

O=C(Nc1nc2cc(O)c(O)cc2s1)[C@H]1CCCN1C(=O)c1ccccc1
inhibition [1]: 33% | pIC50 [2]: 6.03

CC(=O)Nc1ccc2cc(S(=O)(=O)N3CCC[C@@H]3C(=O)Nc3nc4cc(O)c(O)cc4s3)ccc2c1
inhibition [1]: 18% | pIC50 [2]: 5.87

COc1ccc(S(=O)(=O)N2CCC[C@H]2C(=O)Nc2nc3cc(O)c(O)cc3s2)cc1
inhibition [1]: 36% | pIC50 [2]: 5.88

O=C(Nc1nc2cc(O)c(O)cc2s1)[C@@H]1CCCN1S(=O)(=O)c1ccc(Cl)cc1
inhibition [1]: 39% | pIC50 [2]: 6.03

Cc1ccc(S(=O)(=O)Nc2ccccc2C(=O)Nc2nc3cc(O)c(O)cc3s2)cc1
pIC50 [22]: 5.27 | pIC50 [2]: 5.19 | pIC50 [11]: 4.82

O=C(Nc1nc2cc(O)c(O)cc2s1)[C@H]1CCCN1S(=O)(=O)c1cccc([N+](=O)[O-])c1
inhibition [1]: 33% | pIC50 [2]: 5.95

O=C(Nc1nc2cc(O)c(O)cc2s1)[C@@H]1CCCN1C(=O)c1ccccc1
inhibition [1]: 28% | pIC50 [2]: 5.81

O=C(Nc1nc2cc(O)c(O)cc2s1)[C@H]1CCCN1S(=O)(=O)c1ccccc1
inhibition [1]: 21% | pIC50 [2]: 5.73

O=C(Nc1nc2cc(O)c(O)cc2s1)C1CCCCC1
inhibition [1]: 20% | inhibition [3]: 36%

O=C(Nc1nc2cc(O)c(O)cc2s1)[C@@H]1CCCN1S(=O)(=O)c1ccc(-c2ccccc2)cc1
pIC50 [2]: 5.50 | pIC50 [11]: 4.87

Cc1ccc(S(=O)(=O)N2CCC[C@H]2C(=O)Nc2nc3cc(O)c(O)cc3s2)cc1
Drug uptake [5]: Active | Activity [6]: Non-Toxic | pKd [7]: 6.62 | Activity [8]: inactive | Drug uptake [9]: Active | Activity [10]: inactive | Activity [13]: inactive | pIC50 [2]: 5.63 | pIC50 [11]: 4.60

O=C(Nc1nc2cc(O)c(O)cc2s1)[C@H]1CCCN1S(=O)(=O)c1ccc(Cl)cc1
inhibition [1]: 34% | pIC50 [2]: 5.85

O=C(Nc1nc2cc(O)c(O)cc2s1)[C@@H]1CCCN1S(=O)(=O)c1cccc([N+](=O)[O-])c1
inhibition [1]: 25% | pIC50 [2]: 5.75

COc1cc2nc(NC(=O)C3CCCN3S(=O)(=O)c3ccc(C)cc3)sc2cc1OC (configuration not stated)
inhibition [1]: inactive | inhibition [3]: inactive

O=C(Nc1nc2ccc([N+](=O)[O-])cc2s1)[C@@H]1CCCN1C(=O)c1ccccc1
inhibition [1]: 41% | inhibition [3]: 44%

COc1cc2nc(NC(=O)[C@@H]3CCCN3S(=O)(=O)c3ccc(CO)cc3)sc2cc1OC
Drug uptake [5]: Active | Drug uptake [9]: Active

Cc1ccc(S(=O)(=O)N2CCC(C(=O)Nc3nc4cc(O)c(O)cc4s3)CC2)cc1
inhibition [1]: 41% | pIC50 [2]: 5.23
